According to ChEMBL document CHEMBL1148359, “Design, synthesis, and biological evaluation of 2,4-diamino-5-methyl-6-substituted-pyrrolo[2,3-d]pyrimidines as dihydrofolate reductase inhibitors” (J Med Chem, 2004):

Columns and labels:
Dihydrofolate reductase [1] = target: T1, Dihydrofolate reductase (Mycobacterium avium, UniProt O30463); test: Inhibitory concentration against Dihydrofolate reductase from Mycobacterium avium (Mycobacterium avium)
T1 sequence (O30463 whole entry): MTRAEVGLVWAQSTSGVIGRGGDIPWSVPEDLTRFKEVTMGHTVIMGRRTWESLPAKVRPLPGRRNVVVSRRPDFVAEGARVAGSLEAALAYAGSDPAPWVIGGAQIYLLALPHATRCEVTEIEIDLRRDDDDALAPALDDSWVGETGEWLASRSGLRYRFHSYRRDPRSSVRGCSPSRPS

Dihydrofolate reductase [2] = target: T2, Dihydrofolate reductase (Rattus norvegicus, UniProt Q920D2); test: Inhibitory concentration against Dihydrofolate reductase from rat liver
T2 sequence (Q920D2 whole entry): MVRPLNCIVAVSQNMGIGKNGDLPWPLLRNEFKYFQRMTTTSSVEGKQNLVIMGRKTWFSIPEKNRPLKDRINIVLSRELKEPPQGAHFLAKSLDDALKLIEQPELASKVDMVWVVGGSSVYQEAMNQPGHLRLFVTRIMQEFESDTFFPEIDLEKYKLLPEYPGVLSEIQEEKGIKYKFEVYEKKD

Dihydrofolate reductase [3] = target: T3, Dihydrofolate reductase (Pneumocystis carinii, UniProt P16184); test: Inhibition of Dihydrofolate reductase from Pneumocystis carinii (Pneumocystis carinii)
T3 sequence (P16184 whole entry): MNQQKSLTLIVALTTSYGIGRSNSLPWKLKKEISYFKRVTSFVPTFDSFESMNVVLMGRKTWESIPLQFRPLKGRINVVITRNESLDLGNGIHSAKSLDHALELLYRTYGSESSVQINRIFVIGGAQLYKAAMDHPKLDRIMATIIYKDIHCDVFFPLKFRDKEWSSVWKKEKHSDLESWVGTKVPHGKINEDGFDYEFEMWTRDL

[4] = target: T4, Bifunctional dihydrofolate reductase-thymidylate synthase (Toxoplasma gondii, UniProt Q07422); test: Inhibitory concentration against Dihydrofolate reductase from Toxoplasma gondii (Toxoplasma gondii)
T4 sequence (Q07422 whole entry): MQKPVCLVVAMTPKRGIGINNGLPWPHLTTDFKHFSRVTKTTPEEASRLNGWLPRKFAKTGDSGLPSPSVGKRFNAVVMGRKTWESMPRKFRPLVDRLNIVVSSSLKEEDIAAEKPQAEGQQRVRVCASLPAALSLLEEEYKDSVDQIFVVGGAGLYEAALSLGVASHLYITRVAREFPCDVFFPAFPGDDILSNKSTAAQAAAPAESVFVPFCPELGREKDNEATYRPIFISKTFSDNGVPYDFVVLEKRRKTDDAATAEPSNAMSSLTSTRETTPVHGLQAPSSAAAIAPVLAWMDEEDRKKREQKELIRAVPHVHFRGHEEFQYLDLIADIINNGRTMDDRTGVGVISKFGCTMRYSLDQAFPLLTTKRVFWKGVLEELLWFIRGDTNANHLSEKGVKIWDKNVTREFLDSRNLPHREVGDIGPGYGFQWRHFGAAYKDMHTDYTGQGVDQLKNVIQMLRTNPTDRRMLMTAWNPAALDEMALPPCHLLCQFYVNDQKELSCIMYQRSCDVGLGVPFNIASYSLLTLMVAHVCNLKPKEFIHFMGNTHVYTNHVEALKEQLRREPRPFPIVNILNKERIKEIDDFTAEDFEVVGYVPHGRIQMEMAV

[5] = Selectivity ratio (IC50 rlDHFR)/(IC50 maDHFR)
[6] = Selectivity ratio (IC50rlDHFR)/(IC50 tgDHFR)
[7] = Selectivity ratio [(IC50 rlDHFR)/(IC50 pcDHFR)
[8] = target: T5, Dihydrofolate reductase (Pneumocystis carinii) (UniProt P16184); test: Inhibition against Dihydrofolate reductase from Pneumocystis carinii (Pneumocystis carinii) at 12 uM of compound
T5 sequence (whole entry): T3 sequence (P16184 whole entry)

SMILES | IC50 (Dihydrofolate reductase [1]) [µM] | IC50 (Dihydrofolate reductase [2]) [µM] | IC50 (Dihydrofolate reductase [3]) [µM] | IC50 [4] [µM] | Selectivity ratio [5] | Selectivity ratio [6] | Selectivity ratio [7] | inhibition [8] [%]
COc1ccccc1Sc1[nH]c2nc(N)nc(N)c2c1C | 0.3 | 2.32 | 22 | – | – | – | – | –
COc1cccc(Sc2[nH]c3nc(N)nc(N)c3c2C)c1 | 1.37 | 2.06 | 60.2 | – | – | – | – | –
COc1ccc(Sc2[nH]c3nc(N)nc(N)c3c2C)cc1 | 0.6 | 31.3 | 112 | – | – | – | – | –
Cc1c(Sc2cccc3ccccc23)[nH]c2nc(N)nc(N)c12 | 0.7 | – | – | 0.16 | 6.92 | 27.9 | 0.12 | –
Cc1c(Sc2ccc(Cl)cc2)[nH]c2nc(N)nc(N)c12 | 4 | 19 | 16.7 | – | – | – | – | –
Cc1c(Sc2cccc(Cl)c2)[nH]c2nc(N)nc(N)c12 | 4.4 | 47.7 | – | – | – | – | – | –
Cc1c(Sc2ccc(Cl)cc2Cl)[nH]c2nc(N)nc(N)c12 | 19 | 110 | > 12 | 20 | 5.79 | 5.5 | – | 14
COc1ccc(OC)c(Sc2[nH]c3nc(N)nc(N)c3c2C)c1 | – | 7.8 | – | 0.17 | – | – | – | –
COc1cc(CC2CN=C(N)N=C2N)cc(OC)c1OC (centres undefined) | 0.3 | – | – | – | – | – | – | –
